The results in this text go back to patent US20070129359A1, “Tetrahydronaphthalene derivatives, processes for their preparation and their use as antiinflammatory agents” (priority 2005, published 2007).

Assay [1] addresses T1, progesterone receptor (PR) (Homo sapiens, UniProt P06401).
T1 construct: made in house
T1 sequence (P06401 1-933): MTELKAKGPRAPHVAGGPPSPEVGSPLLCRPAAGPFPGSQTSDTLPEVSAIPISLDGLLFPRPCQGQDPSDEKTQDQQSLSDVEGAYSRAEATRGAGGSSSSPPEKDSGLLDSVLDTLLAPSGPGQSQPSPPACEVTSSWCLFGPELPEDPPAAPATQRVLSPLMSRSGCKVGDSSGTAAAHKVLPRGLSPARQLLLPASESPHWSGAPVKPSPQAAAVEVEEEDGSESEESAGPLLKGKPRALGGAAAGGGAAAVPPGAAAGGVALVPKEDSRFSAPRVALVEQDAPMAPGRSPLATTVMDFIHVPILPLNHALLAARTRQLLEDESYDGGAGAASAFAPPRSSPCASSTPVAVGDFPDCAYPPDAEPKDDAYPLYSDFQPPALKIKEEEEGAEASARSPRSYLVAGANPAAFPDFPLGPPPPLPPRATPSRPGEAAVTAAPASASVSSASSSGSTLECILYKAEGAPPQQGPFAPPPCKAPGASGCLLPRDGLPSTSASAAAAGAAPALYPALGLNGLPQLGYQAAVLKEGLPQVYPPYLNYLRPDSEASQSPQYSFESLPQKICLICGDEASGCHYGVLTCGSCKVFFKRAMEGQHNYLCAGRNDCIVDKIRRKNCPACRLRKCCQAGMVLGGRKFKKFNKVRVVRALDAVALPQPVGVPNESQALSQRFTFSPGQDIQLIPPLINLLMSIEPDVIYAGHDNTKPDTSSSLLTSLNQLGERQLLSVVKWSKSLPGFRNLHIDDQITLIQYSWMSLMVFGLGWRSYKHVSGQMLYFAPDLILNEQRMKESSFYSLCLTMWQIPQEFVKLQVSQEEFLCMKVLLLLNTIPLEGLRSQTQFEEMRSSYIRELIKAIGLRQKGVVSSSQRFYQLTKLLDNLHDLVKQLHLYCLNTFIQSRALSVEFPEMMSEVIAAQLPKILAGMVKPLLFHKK
Put plainly: binding to the progesterone receptor (recombinantly prepared receptor). The text has this:
(§1) The binding of the substances to the glucocorticoid receptor (GR) and further steroid hormone receptors (mineral corticoid receptor (MR), progesterone receptor (PR) and androgen receptor (AR)) is examined with the aid of recombinantly prepared receptors. Cytosol preparations of Sf9 cells which had been infected with recombinant baculoviruses which code for the GR are employed for the binding studies. Compared with the reference substance [^3H]-dexamethasone, the substances show a high affinity for the GR.

The target in assay [2] is T2, glucocorticoid receptor (GR) (Homo sapiens, UniProt P04150).
T2 construct: made in house; host or cells: Sf9 cells infected with recombinant baculovirus (cytosol preparation)
T2 sequence (P04150 1-777): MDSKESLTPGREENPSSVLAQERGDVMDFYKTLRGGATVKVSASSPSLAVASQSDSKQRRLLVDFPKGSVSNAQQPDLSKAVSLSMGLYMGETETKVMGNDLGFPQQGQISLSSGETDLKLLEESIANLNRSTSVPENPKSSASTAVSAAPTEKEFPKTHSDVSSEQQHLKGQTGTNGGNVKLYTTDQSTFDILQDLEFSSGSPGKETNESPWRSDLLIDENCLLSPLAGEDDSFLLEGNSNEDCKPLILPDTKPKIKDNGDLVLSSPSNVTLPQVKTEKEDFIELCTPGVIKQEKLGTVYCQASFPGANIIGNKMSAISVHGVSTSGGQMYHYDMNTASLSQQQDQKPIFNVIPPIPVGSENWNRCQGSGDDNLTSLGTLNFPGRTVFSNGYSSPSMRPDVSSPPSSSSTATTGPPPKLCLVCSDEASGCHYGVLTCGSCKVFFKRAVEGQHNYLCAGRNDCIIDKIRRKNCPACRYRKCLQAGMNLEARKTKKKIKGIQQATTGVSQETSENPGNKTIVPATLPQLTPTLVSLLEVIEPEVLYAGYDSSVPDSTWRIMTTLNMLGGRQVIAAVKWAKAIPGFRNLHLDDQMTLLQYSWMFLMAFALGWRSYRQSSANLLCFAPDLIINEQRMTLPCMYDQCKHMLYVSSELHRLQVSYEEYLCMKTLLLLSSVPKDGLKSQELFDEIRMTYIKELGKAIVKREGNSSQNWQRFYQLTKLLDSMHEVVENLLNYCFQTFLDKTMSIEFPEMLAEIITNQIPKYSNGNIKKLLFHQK
Description: binding to the glucocorticoid receptor (recombinant receptor, Sf9 cytosol). To be noted: cytosol of Sf9 cells, reference [3H]-dexamethasone.
Source text: as §1

Assay [3] has as its system IL-8 secretion in the human THP-1 monocyte cell line. Description: inhibition of LPS-induced IL-8 secretion in THP-1 cells (ELISA). It counts as cell-based. The protocol: The compounds of the invention of the general formula (I) inhibit the secretion, induced by lipopolysaccharide (LPS), of the cytokine IL-8 in the human THP-1 monocyte cell line. The concentration of the cytokines was determined in the supernatant using a commercially available ELISA kit.

For the compound `CC1(C)C[C@@](O)(C(F)(F)F)[C@H](NC(=O)c2ccc3occc3c2)c2ccc(F)c(O)c21` (relative stereo) [Example 3L, N-(cis-6-fluoro-2,5-dihydroxy-4,4-dimethyl-2-trifluoro-methyl-1,2,3,4-tetrahydronaphthalen-1-yl)benzofuran-5-carboxamide], the IC50 in assay [1] is more than 1000 nM; in assay [2], 36 nM.

Consider `COc1c(F)ccc2c1C(C)(C)C[C@@](O)(C(F)(F)F)[C@@H]2NC(=O)Nc1ccc2ccccc2c1` [Example 3E], for which the IC50 in assay [3] (LPS, ELISA of supernatant, read-out: IC50(ILB) inhibition of LPS-induced IL-8 secretion) came to 1000 nM. In assay [3] (LPS-induced IL-8 secretion), the “efficiency with regard to [3H]-dexamethasone as standard” value came out at 11%.
